Experimental data as given in ChEMBL document CHEMBL5046231, “Modulation of Naturally Occurring Linear Dipeptide Chirality to Reduce the Affinity for Oligopeptide Transporter 1 and Increase Intestinal Stability for an Enhanced Colon-Targeting Effect in the Treatment of Inflammatory Bowel Disease: An Application of trans-4-l-Hydroxyprolyl-l-serine” (J Med Chem, 2022).
Active and inactive are the calls of the source. The rule behind the calls is not given here.

How the values were obtained:
[1] = tested on: Mus musculus; assay: Anti-colitis activity against DSS-induced colitis in C57BL/6 mouse model assessed as reduction colonic damage at 50 mg/kg, po administered via gavage twice a day for 10 days; type: functional, organism-based; conditions: time 10.0 day
[2] = tested on: Mus musculus; assay: Antiinflammatory activity in DSS-induced C57BL/6 mouse model of colitis assessed as decrease in […] level 25 to 100 mg/kg, po administered via gavage twice a day for 10 days; type: functional, organism-based; conditions: dose 25-100 mg/kg, time 10.0 day
[3] = tested on: Mus musculus; assay: Anti-colitis activity against DSS-induced colitis in C57BL/6 mouse model assessed as assessed as recovery of body weight at 25 mg/kg, po administered via gavage twice daily for 10 days; type: functional, organism-based; conditions: time 10.0 day
[4] = tested on: Mus musculus; assay: Anti-colitis activity against DSS-induced colitis in C57BL/6 mouse model assessed as body weight recovery at 50 mg/kg, po administered via gavage twice a day for 10 days; type: functional, organism-based; conditions: time 10.0 day
[5] = tested on: Mus musculus; assay: Antiinflammatory activity in DSS-induced C57BL/6 mouse model of colitis assessed as decrease in IL-1beta level 25 to 100 mg/kg, po administered via gavage twice a day for 10 days; type: functional, organism-based; conditions: dose 25-100 mg/kg, time 10.0 day
[6] = tested on: Mus musculus; assay: Anti-colitis activity against DSS-induced C57BL/6 mouse model of colitis assessed as assessed as body weight recovery at 50 mg/kg, po administered via gavage DSS stimulation for 5 days followed by compound addition once daily for 10 days; type: functional, organism-based; conditions: time 10.0 day
[7] = tested on: Mus musculus; assay: Anti-colitis activity against DSS-induced colitis in C57BL/6 mouse model assessed as increase in colon length at 25 mg/kg, po administered via gavage twice daily for 10 days; type: functional, organism-based; conditions: time 10.0 day
[8] = tested on: Mus musculus; assay: Anti-colitis activity against DSS-induced colitis in C57BL/6 mouse model assessed as decrease in MPO level in colon at 50 mg/kg, po administered via gavage twice a day for 10 days; type: functional; parameters: scale not given: the % may be the effect or the level left; conditions: time 10 day
[9] = tested on: Mus musculus; assay: Anti-colitis activity against DSS-induced C57BL/6 mouse model of colitis assessed as fold change in body weight recovery at 25 to 100 mg/kg, po administered via gavage twice a day for 10 days relative to SASP; type: functional; conditions: dose 25-100 mg/kg; time 10 day
[10] = tested on: Mus musculus; assay: Antiinflammatory activity in DSS-induced C57BL/6 mouse model of colitis assessed as decrease in TNF-alpha level 25 to 100 mg/kg, po administered via gavage twice a day for 10 days; type: functional, organism-based; conditions: dose 25-100 mg/kg, time 10.0 day
[11] = tested on: Mus musculus; assay: Anti-colitis activity against DSS-induced colitis in C57BL/6 mouse model assessed as increase in colon length at 50 mg/kg, po administered via gavage twice a day for 10 days; type: functional, organism-based; conditions: time 10.0 day
[12] = tested on: Mus musculus; assay: Anti-colitis activity against DSS-induced C57BL/6 mouse model of colitis assessed as fold change in colon length at 25 to 100 mg/kg, po administered via gavage twice a day for 10 days relative to SASP; type: functional; conditions: dose 25-100 mg/kg; time 10 day
[13] = tested on: Mus musculus; assay: Anti-colitis activity against DSS-induced colitis in C57BL/6 mouse model assessed as fold decrease in disease activity index at 50 mg/kg, po administered via gavage twice daily for 10 days relative to control; type: functional; conditions: time 10 day
[14] = tested on: Mus musculus; assay: Anti-colitis activity against DSS-induced C57BL/6 mouse model of colitis assessed as fold change in disease activity index at 25 to 100 mg/kg, po administered via gavage twice a day for 10 days relative to SASP; type: functional; conditions: dose 25-100 mg/kg; time 10 day
[15] = tested on: Mus musculus; assay: Antiinflammatory activity in DSS-induced C57BL/6 mouse model of colitis assessed as increase in IL-10 level 25 to 100 mg/kg, po administered via gavage twice a day for 10 days; type: functional, organism-based; conditions: dose 25-100 mg/kg, time 10.0 day
[16] = tested on: Mus musculus; assay: Anti-colitis activity against DSS-induced C57BL/6 mouse model of colitis assessed as increase in colon length at 50 mg/kg, po administered via gavage DSS stimulation for 5 days followed by compound addition once daily for 10 days; type: functional, organism-based; conditions: time 10.0 day

With `O=C(O)c1cc(/N=N/c2ccc(S(=O)(=O)Nc3ccccn3)cc2)ccc1O` [SULFASALAZINE] the Activity [1] was “Active”, the Activity [2] was “Active” and the Activity [3] was “Active”. For the same compound, the Activity [4] was “Active”, the Activity [5] was “Active” and the Activity [6] was “Active”. The Activity [7] was “Active”, the Activity [8] was 27.3% and the “fold change (FC)” value [9] was 2.1. For the same compound, the Activity [10] was “Active”, the Activity [11] was “Active” and the “fold change (FC)” value [12] was 1.2. The “fold change (FC)” value [13] was 1.5, the “fold change (FC)” value [14] was 2.3 and the Activity [15] was “Active”. For the same compound, the Activity [16] was “Active”.
